{"source": "the supplement of paper PMC10307832", "test_in_all_cases": "relative viability (nuclei count vs DMSO), 5 days (fraction); higher = more cells survive", "key": {"Veliparib + Olaparib": {"compound": "C[C@]1(c2nc3c(C(N)=O)cccc3[nH]2)CCCN1 [Veliparib] + O=C(c1cc(Cc2n[nH]c(=O)c3ccccc23)ccc1F)N1CCN(C(=O)C2CC2)CC1 [Olaparib] (partner 8 µM)", "summary_of_the_method": "(§1)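 Five library-drug doses in √10 steps were combined with a fixed anchor-drug dose, or a single drug was given alone, by pin tool to lung cancer cell lines in 1536-well plates the day after seeding. Nuclei were stained and counted after 5 days. Relative viability is the nuclei count in treated wells over that in vehicle wells, taken as the median of duplicate plates.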"}, "[1]": {"compound": "COC1=CC=C(C=C1)CN2C=CC3=C2C=C(C=C3)C(=O)NO + Cc1nc(Nc2ncc(C(=O)Nc3c(C)cccc3Cl)s2)cc(N2CCN(CCO)CC2)n1 [Dasatinib] (partner 0.075 µM)", "summary_of_the_method": "as §1"}, "Veliparib + Pictilisib": {"compound": "C[C@]1(c2nc3c(C(N)=O)cccc3[nH]2)CCCN1 [Veliparib] + CS(=O)(=O)N1CCN(Cc2cc3nc(-c4cccc5[nH]ncc45)nc(N4CCOCC4)c3s2)CC1 [Pictilisib] (partner 1 µM)", "summary_of_the_method": "as §1"}, "[2]": {"compound": "COC1=CC=C(C=C1)CN2C=CC3=C2C=C(C=C3)C(=O)NO + O=C(c1cc(Cc2n[nH]c(=O)c3ccccc23)ccc1F)N1CCN(C(=O)C2CC2)CC1 [Olaparib] (partner 8 µM)", "summary_of_the_method": "as §1"}}}
{"cell line": "SW 1573", "values": [{"measurement": "relative viability", "setting": "Veliparib + Olaparib; first compound 0.02 µM", "value": 0.57}, {"measurement": "relative viability", "setting": "Veliparib + Olaparib; first compound 0.06325 µM", "value": 0.428}, {"measurement": "relative viability", "setting": "Veliparib + Olaparib; first compound 0.2 µM", "value": 0.464}, {"measurement": "relative viability", "setting": "Veliparib + Olaparib; first compound 0.6325 µM", "value": 0.42}, {"measurement": "relative viability", "setting": "Veliparib + Olaparib; first compound 2 µM", "value": 0.442}, {"measurement": "relative viability", "setting": "[1]; first compound 0.253 µM", "value": 0.545}, {"measurement": "relative viability", "setting": "[1]; first compound 0.8 µM", "value": 0.702}, {"measurement": "relative viability", "setting": "[1]; first compound 2.53 µM", "value": 0.561}, {"measurement": "relative viability", "setting": "[1]; first compound 8 µM", "value": 0.322}, {"measurement": "relative viability", "setting": "Veliparib + Pictilisib; first compound 0.02 µM", "value": 0.459}, {"measurement": "relative viability", "setting": "Veliparib + Pictilisib; first compound 0.06325 µM", "value": 0.587}, {"measurement": "relative viability", "setting": "Veliparib + Pictilisib; first compound 0.2 µM", "value": 0.476}, {"measurement": "relative viability", "setting": "Veliparib + Pictilisib; first compound 0.6325 µM", "value": 0.497}, {"measurement": "relative viability", "setting": "Veliparib + Pictilisib; first compound 2 µM", "value": 0.418}, {"measurement": "relative viability", "setting": "[2]; first compound 0.253 µM", "value": 0.543}, {"measurement": "relative viability", "setting": "[2]; first compound 0.8 µM", "value": 0.465}, {"measurement": "relative viability", "setting": "[2]; first compound 2.53 µM", "value": 0.432}, {"measurement": "relative viability", "setting": "[2]; first compound 8 µM", "value": 0.334}]}
